Measured values reported in US20150119360A1, “COMPOSITION FOR PROMOTING BIFIDOBACTERIA GROWTH” (Kyoto University, priority 2012, published 2015).

Tests used:
Experiment in all cases: Growth-promoting (prebiotic) effect, OD600 after 24 hr anaerobic culture in GAM bouillon
Format in all cases: cell-based
[1] = system: Bifidobacterium longum subsp. Longum 7054 strain; details: B. longum subsp. Longum 7054, 0.5 (w/v) % oligosaccharide, 37° C.
Description: (§1) The microorganisms were purchased from independent administrative agency RIKEN Tsukuba Laboratory BioResource Center (3-1-1 Koyadai, Tsukuba, Ibaraki 305-0074, Japan). As Bifidobacterium longum subsp. longum NCC2705, the strain preserved under GenBank accession number NC004307 was used.
(§2) Glycerol stock of each strain shown in Table 1 was plated in GAM bouillon (manufactured by Nissui Pharmaceutical Co., Ltd.) agar medium, and cultured using a gas pack (“Anaeropack”, manufactured by Mitsubishi Gas Chemical Company, Inc.), under anaerobic conditions at 37° C. for 2 days to renature the test strain. Each strain was inoculated in 5 mL GAM bouillon liquid medium, and precultured in the same manner as above under an anaerobic condition at 37° C. for 18 hr.
(§3) The turbidity (OD600) of each culture medium was measured at wavelength 600 nm on completion of the preculture. The preculture medium was seeded in 1 mL of main test liquid medium such that the OD600 value at the time of start of the culture was 0.010, the cells were cultured under anaerobic conditions at 37° C. for 24 hr in the same manner as above, and OD600 of the culture medium was measured on completion of the culture. The liquid medium for the test was prepared by adding LNT or LNnT to the GAM bouillon liquid medium at a final concentration of 0.5 (w/v) %. In addition, GAM bouillon liquid medium free of both oligosaccharides LNT, LNnT was used as a control. To evaluate the growth-promoting effect (prebiotic effect) of LNT and LNnT, the relative value of the oligosaccharide (LNT or LNnT) addition plot, when the measurement value OD600 of the oligosaccharide non-addition plot (control) was 1, is shown in FIG. 2.

[2] = system: Bifidobacterium longum subsp. Longum 1217 strain; details: B. longum subsp. Longum 1217, 0.5 (w/v) % oligosaccharide, 37° C.
Description: as §1, §2, §3

[3] = system: Bifidobacterium longum subsp. Longum NCC2705 strain; details: B. longum subsp. Longum NCC2705, 0.5 (w/v) % oligosaccharide, 37° C.
Description: as §1, §2, §3

Measured: prebiotic effect (OD600 of oligosaccharide addition test plot/OD600 of control plot)

4-O-[3-[2-(acetylamino)-2-deoxy-3-O-(β-D-galactopyranosyl)-β-D-glucopyranosyl]-β-D-galactopyranosyl]-D-glucose [LNT]
≥ 2 fold: all assays above
